Test results taken from ChEMBL document CHEMBL4020808, “Inhibitors of DNA Gyrase-GyrB Subunit and/or Topoisomerase IV-ParE Subunit May Treat Infectious Diseases Caused by Antibiotic-Resistant Bacteria” (2017).
≈ marks a conversion by molar mass, not a printed value.

Assays:
Format in all cases: functional
[1] = tested on: Clostridioides difficile; assay: Antimicrobial activity against Clostridioides difficile ATCC 43255 under anaerobic condition for 42 to 48 hrs by agar dilution method
[2] = tested on: Streptococcus pneumoniae; assay: Antimicrobial activity against Streptococcus pneumoniae ATCC 49619 after 20 hrs by broth microdilution method; settings: ATCC 49619, 20 h
[3] = tested on: Haemophilus influenzae; assay: Antimicrobial activity against Haemophilus influenzae ATCC 49247 after 20 hrs by broth microdilution method; settings: ATCC 49247, 20 h
[4] = tested on: Staphylococcus aureus; assay: Antimicrobial activity against Staphylococcus aureus ATCC 29213 after 20 hrs by broth microdilution method; settings: ATCC 29213, 20 h
[5] = tested on: Enterococcus faecalis; assay: Antimicrobial activity against Enterococcus faecalis ATCC 29212 after 20 hrs by broth microdilution method; settings: ATCC 29212, 20 h

Structure (SMILES)	MIC [1] [µg/mL]	MIC [2] [µg/mL]	MIC [3] [µg/mL]	MIC [4] [µg/mL]	MIC [5] [µg/mL]
CCc1[nH]c(C(=O)N[C@@H]2CCN(c3nnc([C@H](C)O)s3)C[C@@H]2OC)nc1Cl	0.125 (≈ 0.301 µM)	0.25 (≈ 0.603 µM)	1 (≈ 2.41 µM)	0.5 (≈ 1.21 µM)	0.25 (≈ 0.603 µM)
CCc1[nH]c(C(=O)N[C@@H]2CCN(c3nnc(C(C)(C)O)s3)C[C@@H]2OC)nc1Cl	0.06 (≈ 0.14 µM)	0.25 (≈ 0.583 µM)	0.5 (≈ 1.17 µM)	0.25 (≈ 0.583 µM)	0.25 (≈ 0.583 µM)
CCO[C@H]1CN(c2nnc(C(C)O)s2)CC[C@H]1NC(=O)c1nc(Cl)c(CC)[nH]1 (some centres undefined)	0.03 (≈ 0.0699 µM)	0.25 (≈ 0.583 µM)	2 (≈ 4.66 µM)	0.5 (≈ 1.17 µM)	0.25 (≈ 0.583 µM)
CCc1[nH]c(C(=O)N[C@@H]2CCN(c3nnc([C@@](C)(O)CO)s3)C[C@@H]2OC)nc1Cl	0.06 (≈ 0.135 µM)			1 (≈ 2.25 µM)	
CCc1[nH]c(C(=O)N[C@@H]2CCN(c3nnc([C@@H](C)O)s3)C[C@@H]2OC)nc1Cl	0.06 (≈ 0.145 µM)	0.25 (≈ 0.603 µM)	1 (≈ 2.41 µM)	0.5 (≈ 1.21 µM)	0.25 (≈ 0.603 µM)
CCc1[nH]c(C(=O)N[C@@H]2CCN(c3nnc([C@@H](O)CO)s3)C[C@@H]2OC)nc1Cl	0.125 (≈ 0.29 µM)			4 (≈ 9.28 µM)	
